# Data published in PMC5788896 (Frontiers in Pharmacology, 2018).
# Tests used:
# [1] = intravenous administration of 1 mg/kg; ref Gavini et al., 2011; cited from earlier work
# [2] = parameters: method as in Turina et al., 2006; conditions: ref Turina et al., 2006; cited from earlier work
# NCM460 cell monolayers [3] = experiment: Permeation studies across NCM460 cell monolayers (Millicell inserts, HPLC); type: in vitro ADME, human; conditions: A → B higher than B → A, P < 0.001
# Description: Differentiation to NCM460 cell monolayers was performed essentially according to the method reported by [Ferretti et al. (2015)]. Briefly, after two passages, confluent NCM460 cells were seeded at a density of 10^5 cells/mL in a 1:1 ratio of fresh and spent culture medium in 12-well Millicell inserts (Millipore, Milan, Italy) consisting of 1.0 μm pore size polyethylene terephthalate (PET) filter membranes, whose surface was 1.12 cm^2. Filters were presoaked for 24 h with fresh culture medium, and then the upper compartment (apical, A) received 400 μL of the diluted cells, whereas the lower compartment (basolateral, B) received 2 mL of the medium in the absence of cells. […] The integrity of the cell monolayers was monitored by measuring the transepithelial electrical resistance (TEER) by means of a voltmeter (Millicell-ERS; Millipore, Milan, Italy). The measured resistance value was multiplied by the area of the filter to obtain an absolute value of TEER, expressed as Ω⋅cm^2. […] The homogeneity and integrity of the cell monolayer were also monitored by phase contrast microscopy. […]
# Permeation experiments were performed in triplicate in both the apical-to-basolateral (A → B) and basolateral-to-apical (B → A) directions. […] TEER values were monitored before and after each experiment. […]
# The permeabilities were determined for the filters alone (Pf), and for the filters covered with cells (Pt). […]
# [4] = Stability of geraniol in phosphate buffered saline; type: physicochemical; conditions: 37°C, for at least 8 h, data not shown
# Excerpt: During the experiment drug solutions were shaken continuously and gently in an oscillating water-bath.
# [5] = Intravenous infusion pharmacokinetics, whole blood by HPLC; type: in vivo, Sprague-Dawley rats
# Description: The samples were extracted and analyzed as described above, with the only difference that the samples withdrawn within 20 min after infusion were diluted 1:10 using the H2O:CH3CN mixture (50:50 v/v) before analysis. Four rats ware employed for intravenous infusions of geraniol. […] The calculations were performed using the computer program GraphPad Prism. […] At the end of the oral administration and at fixed time points, blood samples (100 μL) were collected and CSF samples (50 μL) were withdrawn using the cysternal puncture method described by [van den Berg et al. (2002)], which requires a single needle stick and allows the collection of serial (40–50 μL) CSF samples that are virtually blood-free ([Dalpiaz et al., 2014]). A total volume of approximately 150 μL of CSF was collected during the experimental session. […] In particular, blood withdrawals for all programmed time points were repeated four times with a corresponding number of rats; CSF withdrawals for all programmed time points were repeated at least four times with a number of rats allowing no more than three CSF withdrawals from each of them. […] All the calculations were performed using the computer program Graph Pad Prism.
# [6] = system: Glutathione S-transferase (GST); experiment: Glutathione S-transferase activity in liver after 28-day treatment; type: in vivo, C57BL/6 mice; conditions: mice liver
# Description: (§1) At the end of treatment, mice were killed.
# The incubation mixture for measuring overall GST activity contained 1 mM glutathione + 1 mM 1-chloro-2,4-dinitrobenzene (CDNB) in methanol + 0.025 mL of sample in a final volume of 2.5 mL 0.1 M phosphate Na^+/K^+ buffer (pH 6.5). The product of the reaction of the thiol group of glutathione with the electrophilic group of CDNB was read at 340 nm (ε = 9.6 mM^-1 cm^-1) ([Vivarelli et al., 2016a]).
# [7] = system: UDP glucuronosyl-transferase (UDPGT); experiment: UDP-glucuronosyl transferase activity in liver after 28-day treatment; type: in vivo, C57BL/6 mice; conditions: mice liver
# Description: At the end of treatment, mice were killed. […] Experiments were performed in the presence or absence of Triton X-100 (0.2%) as a detergent, in order to improve the assay sensitivity ([Canistro et al., 2008]).
# Catalase (CAT) = experiment: Catalase activity in liver after 28-day treatment; type: in vivo, C57BL/6 mice; conditions: mice liver
# Description: At the end of treatment, mice were killed. […] Catalase (CAT) activity. The reaction was started in a quartz cuvette containing 50 mM potassium phosphate buffer and cytosol sample by adding 30 mM H2O2.
# [8] = system: NAD(P)H: quinone reductase (NQO1); experiment: NAD(P)H:quinone reductase activity in liver after 28-day treatment; type: in vivo, C57BL/6 mice; conditions: mice liver, geraniol 120 mg/kg by gavage for 28 days
# Excerpt: At the end of treatment, mice were killed. […] NAD(P)H:quinone reductase (NQO1) activity.
# [9] = system: Superoxide dismutase (SOD); experiment: Superoxide dismutase activity in liver after 28-day treatment; type: in vivo, C57BL/6 mice; conditions: mice liver
# Description: At the end of treatment, mice were killed. […] Superoxide dismutase activity (SOD): Superoxide dismutase activity was determined according to Misra and Fridovich’s assay ([Misra and Fridovich, 1972]). Briefly, the activity was assayed spectophotometrically at […] by monitoring the generation of adenochrome, one of the main products of epinephrine autoxidation at pH 10.2. The dejection of autoxidation was used to calculate SOD activity using the extinction coefficient of 4.02 per mM × cm, and expressed as mol of epinephrine oxidized/min per mg protein, derived by subtracting each test curve from the epinephrine autoxidation standard curve ([Bonamassa et al., 2016]).
# [10] = system: Oxidized glutathione reductase (GSSG-red); experiment: Oxidized glutathione reductase activity in liver after 28-day treatment; type: in vivo, C57BL/6 mice; conditions: mice liver
# Description: At the end of treatment, mice were killed. […] Oxidized glutathione reductase activity (GSSG-red). […] The generation of NADP^+ from NADPH during the reduction of GSSG was recorded at 340 nm for 5 min at 37°C. GSSG-red activity was calculated using the extinction coefficient of 6.22 per mM x cm, and expressed as mol of NADPH consumed/min per mg protein ([Bonamassa et al., 2016]).
# [11] = Hematochemical analysis and lipid serum profile after 28-day treatment; type: in vivo, C57BL/6 mice
# Description: as §1
# For each animal, blood samples were collected in both heparinized and non-heparinized tubes. Plasma from heparinized samples was obtained after tabletop centrifugation at 2,000 rpm, while blood in non-heparinized tubes was centrifuged at 1,500 rpm for 10 min after complete coagulation, to obtain serum. Biochemical and hematological analyses were assessed by the Department of Veterinary Medical Science, University of Bologna.
# [12] = parameters: method as in Turina et al., 2006; conditions: ref Turina et al., 2006; cited from earlier work; remark: listed apart in the source
# NCM460 cell monolayers [13] = conditions: P-gp efflux transporter substrate; ref Marchetti et al., 2016; cited from earlier work
# [14] = 120 mg/kg 28 days, versus controls
# [15] = geraniol 120 mg/kg by gavage for 28 days
# [16] = mice blood, geraniol 120 mg/kg by gavage for 28 days
# [17] = mice serum, geraniol 120 mg/kg by gavage for 28 days
smiles,measurement,setting,value
CCCC(=O)O[C@H]1[C@H](C)O[C@@H](O[C@H]2[C@H](N(C)C)[C@@H](O)[C@H](O[C@H]3[C@@H](CC=O)C[C@@H](C)[C@@H](O)/C=C/C=C/C[C@@H](C)OC(=O)C[C@@H](O)[C@@H]3OC)O[C@@H]2C)C[C@@]1(C)OC(=O)CC [rokitamycin],concentration values in whole blood,[1],up to 7 μg/mL
CC12CCC(CC1)C(C)(C)O2 [cineole],membrane/water partition coefficient (Pm/w),[2],3.37
"CC(C)=CCC/C(C)=C/CO [geraniol, 3,7-dimethylocta-trans-2,6-dien-1-ol]",permeation rate apical to basolateral versus opposite direction,NCM460 cell monolayers [3],roughly sixfold
same,stability in PBS,[4],highly stable
same,drug concentration in the rat bloodstream after intravenous infusion,"[5]; iv infusion 12.5 mg (50 mg/kg), end of infusion",298 ± 19 µg/mL
same,AUC,"[5]; male, Sprague-Dawley, rat, iv 50 mg/kg, blood, within 3 h, read-out: AUC, intravenous administration (converted)",126 µg·h/mL
same,half-life,"[5]; male, Sprague-Dawley, rat, iv infusion 12.5 mg (50 mg/kg), apparent first order kinetics, read-out: half-life in the bloodstream",12.5 ± 1.5 min
same,effect on Phase II enzymes (GST),[6]; [14],not affected
same,"Glutathione S-transferase (GST), Mean",[6]; [15],2.60 µmol/mg/min
same,effect on Phase II enzymes (UDPGT),[7]; [14],not affected
same,"UDP glucuronosyl-transferase (UDPGT), Mean",[7]; [15],3.89 nmol/mg/min
same,catalase (CAT) induction with respect to controls,"Catalase (CAT); 120 mg/kg 28 days, P < 0.01",up to 29%
same,"Catalase (CAT), Mean",Catalase (CAT); [15],2.55 µmol/mg/min
same,"NAD(P)H: quinone reductase (NQO1), Mean",[8],12.43 nmol/mg/min
same,effect on Superoxide dismutase (SOD) activity,[9]; [14],not affected
same,"Superoxide dismutase (SOD), Mean",[9]; [15],13.65 nmol/mg/min
same,oxidized glutathione reductase (GSSG-red) induction with respect to controls,"[10]; 120 mg/kg 28 days, P < 0.01",up to 56%
same,"Oxidized glutathione reductase (GSSG-red), Mean",[10]; [15],118.31 µmol/mg/min
same,ALT,[11]; [16],34 ± 5 U/l
same,AST,[11]; [16],149 ± 24 U/l
same,Cholesterol,[11]; [17],94 ± 7 mg/dL
same,HDL cholesterol,[11]; [17],66 ± 4 mg/dL
same,liver toxicity,"[11]; mice, 120 mg/kg of geraniol for 4 weeks",no signs of liver toxicity
same,n-octanol/water partition coefficient,[12],2.65
same,membrane/water partition coefficient (Pm/w),[2],4.38
CC12CCC(CC1=O)C2(C)C (stereo not shown) [camphor],membrane/water partition coefficient (Pm/w),[2],3.99
CCN(CC)C(=O)Nc1ccc(OCC(O)CNC(C)(C)C)c(C(C)=O)c1 (stereo not shown) [celiprolol],direction of transport across NCM460 monolayers,NCM460 cell monolayers [13],rate from basolateral to apical compartments being significantly higher than its rate in the opposite direction
CC1CCC(C(C)C)C(O)C1 (stereo not shown) [menthol],membrane/water partition coefficient (Pm/w),[2],2.44
